In patent US8410144B2, “Substituted indolo-pyridinone compounds” (ArQule, Inc., priority 2009, dated 2013):

How the values were obtained:
DLD-1 = assay: MTS assay, DLD-1 cells; assay type: cell-based; conditions: Homo sapiens, 72 hours, read-out: DLD-1, MTS cell kill % inhibition
Outline: (§1)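 First, seed 3000 cells per well in low-serum (1% FBS) DMEM and culture 18 h. Next, add compounds prepared at 300× in DMSO and diluted 1:40 in DMEM; incubate 72 h. Finally, add MTS/PMS for 4 h and measure absorbance at 492 nm.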

KATO III = assay: MTS assay, KATO III cells; assay type: cell-based; conditions: Homo sapiens, 72 hours, read-out: KATO III, MTS cell kill % inhibition
Outline: as §1

MDA-MB-231 = assay: MTS assay, MDA-MB-231 cells; assay type: cell-based; conditions: Homo sapiens, 72 hours, read-out: MDA-MB-231, MTS cell kill % inhibition
Outline: as §1

NCI-H1299 = assay: MTS assay, NCI-H1299 cells; assay type: cell-based; conditions: Homo sapiens, 72 hours, read-out: NCI-H1299, MTS cell kill % inhibition
Outline: as §1

IGF-1R = IGF-1R (Homo sapiens, UniProt P08069); assay: IGFR1 activity assay (ELISA); assay type: biochemical; conditions: read-out: IGF-1R, PCT INH (30 μM), ELISA
Sequence of IGF-1R (P08069 31-1367): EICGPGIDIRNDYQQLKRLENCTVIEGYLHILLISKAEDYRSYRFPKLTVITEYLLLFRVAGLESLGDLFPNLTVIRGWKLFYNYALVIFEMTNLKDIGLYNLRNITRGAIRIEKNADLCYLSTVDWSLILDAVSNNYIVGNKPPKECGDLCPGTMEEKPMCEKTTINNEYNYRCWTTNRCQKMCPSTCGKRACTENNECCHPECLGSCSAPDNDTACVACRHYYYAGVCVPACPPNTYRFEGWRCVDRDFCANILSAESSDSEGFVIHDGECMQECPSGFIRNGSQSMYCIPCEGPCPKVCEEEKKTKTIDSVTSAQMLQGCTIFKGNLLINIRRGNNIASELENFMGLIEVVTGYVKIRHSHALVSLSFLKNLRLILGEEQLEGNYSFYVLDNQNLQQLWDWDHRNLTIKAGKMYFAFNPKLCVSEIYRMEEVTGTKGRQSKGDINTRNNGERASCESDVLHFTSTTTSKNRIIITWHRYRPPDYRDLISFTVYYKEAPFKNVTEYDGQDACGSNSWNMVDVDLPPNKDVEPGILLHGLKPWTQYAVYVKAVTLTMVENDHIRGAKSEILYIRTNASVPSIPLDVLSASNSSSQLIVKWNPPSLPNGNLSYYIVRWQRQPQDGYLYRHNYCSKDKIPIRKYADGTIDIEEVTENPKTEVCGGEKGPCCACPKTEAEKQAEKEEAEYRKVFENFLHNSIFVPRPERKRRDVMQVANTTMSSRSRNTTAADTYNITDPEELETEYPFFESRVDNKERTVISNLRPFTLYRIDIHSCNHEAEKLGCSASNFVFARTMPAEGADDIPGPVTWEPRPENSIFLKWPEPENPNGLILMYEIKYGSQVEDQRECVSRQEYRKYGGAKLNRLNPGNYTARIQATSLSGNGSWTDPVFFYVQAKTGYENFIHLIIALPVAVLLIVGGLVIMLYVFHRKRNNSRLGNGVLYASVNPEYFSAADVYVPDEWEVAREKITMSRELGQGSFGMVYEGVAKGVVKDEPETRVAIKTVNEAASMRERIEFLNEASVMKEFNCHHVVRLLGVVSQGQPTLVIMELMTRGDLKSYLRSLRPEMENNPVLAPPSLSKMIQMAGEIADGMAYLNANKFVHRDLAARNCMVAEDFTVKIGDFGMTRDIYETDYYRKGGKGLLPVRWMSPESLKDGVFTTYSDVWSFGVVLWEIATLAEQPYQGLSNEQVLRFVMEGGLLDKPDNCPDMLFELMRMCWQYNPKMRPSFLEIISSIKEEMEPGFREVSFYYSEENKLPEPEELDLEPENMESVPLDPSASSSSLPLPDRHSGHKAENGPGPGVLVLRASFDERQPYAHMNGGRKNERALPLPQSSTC
Outline: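 IGF1R (0.33 ng/μL final) phosphorylating Pyk-2 (0.05 ng/μL final) in buffer with 12.5 μM ATP, 10 mM MgCl2, 1 h room temperature. Product captured on streptavidin plates, detected with anti-phosphotyrosine and alkaline phosphatase secondary antibody, Attophos fluorescent readout.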

Row | inhibition at 30 µM (IGF-1R) [%] | melting point [°C] | Structure (SMILES) | inhibition at 10 µM (DLD-1) [%] | inhibition at 10 µM (KATO III) [%] | inhibition at 10 µM (MDA-MB-231) [%] | inhibition at 10 µM (NCI-H1299) [%]
1 | < 50 | > 300 | COC(=O)c1ccc2[nH]c(-c3ccc[nH]c3=O)c(-c3ccc(-c4ccccc4)cc3)c2c1 [Compound 9, methyl 3-biphenyl-4-yl-2-(2-oxo-1,2-dihydropyridin-3-yl)-1H-indole-5-carboxylate] | < 50 | < 50 | < 50 | < 50
2 | 80 to 100 | 190 to 198 | CCN(CC)CCCNC(=O)c1ccc2[nH]c(-c3ccc[nH]c3=O)c(-c3ccccc3)c2c1 [Compound 2, N-[3-(diethylamino)propyl]-2-(2-oxo-1,2-dihydropyridin-3-yl)-3-phenyl-1H-indole-5-carboxamide] | 50 to 79 | 80 to 100 | 50 to 79 | 50 to 79
3 | 80 to 100 | 125 to 128 | CN(C)CCCN(C)C(=O)c1ccc2[nH]c(-c3ccc[nH]c3=O)c(-c3ccccc3)c2c1 [Compound 27, N-[3-(dimethylamino)propyl]-N-methyl-2-(2-oxo-1,2-dihydropyridin-3-yl)-3-phenyl-1H-indole-5-carboxamide] | 50 to 79 | 80 to 100 | 50 to 79 | 50 to 79
4 | 80 to 100 | 279 to 283 | COc1ccc(NC(=O)c2ccc3[nH]c(-c4ccc[nH]c4=O)c(-c4ccccc4)c3c2)cc1 [Compound 29, N-(4-methoxyphenyl)-2-(2-oxo-1,2-dihydropyridin-3-yl)-3-phenyl-1H-indole-5-carboxamide] | 50 to 79 | 80 to 100 | < 50 | 80 to 100
5 | 80 to 100 | 143 to 145 | CN(C)CCCNC(=O)c1ccc2[nH]c(-c3ccc[nH]c3=O)c(-c3ccccc3)c2c1 [Compound 30, N-[3-(dimethylamino)propyl]-2-(2-oxo-1,2-dihydropyridin-3-yl)-3-phenyl-1H-indole-5-carboxamide] | 80 to 100 | 80 to 100 | 80 to 100 | 80 to 100
6 | 50 to 79 | 176 to 182 | O=C(Nc1cccc(F)c1)c1ccc2[nH]c(-c3ccc[nH]c3=O)c(-c3ccccc3)c2c1 [Compound 13, N-(3-fluorophenyl)-2-(2-oxo-1,2-dihydropyridin-3-yl)-3-phenyl-1H-indole-5-carboxamide] | 80 to 100 | 80 to 100 | 50 to 79 | 80 to 100

More lines, now with the values behind:

Row | Structure (SMILES) | inhibition at 30 µM (IGF-1R) [%] | melting point [°C] | inhibition at 10 µM (DLD-1) [%] | inhibition at 10 µM (KATO III) [%] | inhibition at 10 µM (MDA-MB-231) [%] | inhibition at 10 µM (NCI-H1299) [%]
7 | O=C(NCCCN1CCOCC1)c1ccc2[nH]c(-c3ccc[nH]c3=O)c(-c3ccc(Cl)c(Cl)c3)c2c1 [Compound 59, 3-(3,4-dichlorophenyl)-N-(3-morpholin-4-ylpropyl)-2-(2-oxo-1,2-dihydropyridin-3-yl)-1H-indole-5-carboxamide] | 50 to 79 | 135 to 138 | 50 to 79 | 80 to 100 | < 50 | 50 to 79
8 | Cc1cccc(-c2c(-c3ccc[nH]c3=O)[nH]c3ccc(C(=O)NCCCN4CCOCC4)cc23)c1 [Compound 78, 3-(3-methylphenyl)-N-(3-morpholin-4-ylpropyl)-2-(2-oxo-1,2-dihydropyridin-3-yl)-1H-indole-5-carboxamide] | 80 to 100 | 120 to 122 | 50 to 79 | < 50 | < 50 | 50 to 79
9 | O=C(NCCCN1CCOCC1)c1ccc2[nH]c(-c3ccc[nH]c3=O)c(-c3ccc(Oc4ccccc4)cc3)c2c1 [Compound 57, N-(3-morpholin-4-ylpropyl)-2-(2-oxo-1,2-dihydropyridin-3-yl)-3-(4-phenoxyphenyl)-1H-indole-5-carboxamide] | 80 to 100 | 121 to 123 | 80 to 100 | 80 to 100 | 80 to 100 | 80 to 100
10 | O=C(NCc1ccccn1)c1ccc2[nH]c(-c3ccc[nH]c3=O)c(-c3ccc(-c4ccccc4)cc3)c2c1 [Compound 42, 3-biphenyl-4-yl-2-(2-oxo-1,2-dihydropyridin-3-yl)-N-(pyridin-2-ylmethyl)-1H-indole-5-carboxamide] | < 50 | 123 to 127 | 80 to 100 | 80 to 100 | 80 to 100 | 80 to 100
11 | CN(C)CCCNCc1ccc2[nH]c(-c3ccc[nH]c3=O)c(-c3ccc(-c4ccccc4)cc3)c2c1 [Compound 54, 3-[3-biphenyl-4-yl-5-({[3-(dimethylamino)propyl]amino}methyl)-1H-indol-2-yl]pyridin-2(1H)-one] | < 50 | 160 to 166 | 50 to 79 | < 50 | 50 to 79 | < 50
12 | O=C(c1ccc2[nH]c(-c3ccc[nH]c3=O)c(-c3ccc(-c4ccccc4)cc3)c2c1)N1CCN(c2cnccn2)CC1 [Compound 45, 3-{3-biphenyl-4-yl-5-[(4-pyrazin-2-ylpiperazin-1-yl)carbonyl]-1H-indol-2-yl}pyridin-2(1H)-one] | 50 to 79 | 289 to 296 | 50 to 79 | 80 to 100 | 80 to 100 | 80 to 100
13 | O=c1[nH]cccc1-c1[nH]c2ccccc2c1-c1ccccc1 [Compound 84, 3-(3-phenyl-1H-indol-2-yl)pyridin-2(1H)-one] | 80 to 100 | 240 to 242 | 50 to 79 | 80 to 100 | 50 to 79 | 50 to 79
14 | CN(Cc1cccnc1)C(=O)c1ccc2[nH]c(-c3ccc[nH]c3=O)c(-c3ccc(-c4ccccc4)cc3)c2c1 [Compound 33, 3-biphenyl-4-yl-N-methyl-2-(2-oxo-1,2-dihydropyridin-3-yl)-N-(pyridin-3-ylmethyl)-1H-indole-5-carboxamide] | < 50 | 92 to 97 | 80 to 100 | 80 to 100 | 80 to 100 | 80 to 100
15 | O=C(NCCCN1CCOCC1)c1ccc2[nH]c(-c3ccc[nH]c3=O)c(Br)c2c1 [Compound 56, 3-bromo-N-(3-morpholin-4-ylpropyl)-2-(2-oxo-1,2-dihydropyridin-3-yl)-1H-indole-5-carboxamide] | 80 to 100 | 138 to 142 | < 50 | < 50 | < 50 | < 50
16 | CCOc1ccc(-c2c(-c3ccc[nH]c3=O)[nH]c3ccc(C(=O)NCCCN4CCOCC4)cc23)cc1 [Compound 79, 3-(4-ethoxyphenyl)-N-(3-morpholin-4-ylpropyl)-2-(2-oxo-1,2-dihydropyridin-3-yl)-1H-indole-5-carboxamide] | 80 to 100 | 143 to 145 | 80 to 100 | 80 to 100 | 80 to 100 | 80 to 100
17 | O=C(c1ccc2[nH]c(-c3ccc[nH]c3=O)c(-c3ccc(-c4ccccc4)cc3)c2c1)N1CCN(c2ccccc2F)CC1 [Compound 36, 3-(3-biphenyl-4-yl-5-{[4-(2-fluorophenyl)piperazin-1-yl]carbonyl) -1H-indol-2-yl)pyridin-2(1H)-one] | < 50 | 137 to 144 | < 50 | < 50 | 50 to 79 | < 50
